The record followed here is PubChem BioAssay (NCI).

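Test compounds were applied to cells in 96-well plates for 48 hours at 5 doses. At the TGI there is no net growth.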 Some results are limits rather than exact numbers.

What all share (experiment): NCI anticancer screen, dose series, 48 h
For assay [1], the system named is SK-MEL-28 melanoma.
The subject of assay [2] is RPMI-8226 leukemia.
Assay [3] deals with UACC-62 melanoma.
The subject of assay [4] is KM12 colon.
In assay [5] the test system is OVCAR-4 ovarian.
In assay [6] the test system is OVCAR-5 ovarian.
The subject of assay [7] is TK-10 renal.
Assay [8] has as its system MDA-MB-435.
In assay [9] the test system is BT-549 breast.
The subject of assay [10] is A549 NSCLC.
For assay [11], the system named is HOP-62 NSCLC.
For assay [12], the system named is SW-620 colon.

Consider `CC1=NN(c2nc(N)nc(-c3cc4ccccc4oc3=N)n2)C(C)(C)C1`, for which the TGI in assay [1] turned out to be 30.5 µM; in assay [2], 42.6 µM; in assay [3] it was 34.1 µM; in assay [4] it was 34.2 µM; in [5], 31.2 µM; in assay [6] it was 60.1 µM. For the same compound, the TGI in assay [7] is 38.4 µM; in [8], 41.8 µM; in assay [9] it was 47 µM; in assay [10] it was 41.3 µM; in [11] it was 37.2 µM.
In the case of `Cc1ccc(C(=O)N/N=C(\N=Nc2ccccc2C(=O)O)c2ccc(N(C)C)cc2)cc1`, the TGI in [1], in [12], in [2], in assay [4], in assay [5] and in assay [6] was greater than 100 µM each time. Moreover, the TGI in assay [7], in assay [8], in assay [9] and in assay [10] was greater than 100 µM each time.
Consider `CCCCCCCCCCOc1ccc(N=Nc2nnc(-c3ccc(OCCCCC)cc3)s2)cc1`, for which the TGI in assay [1], in [12], in [2], in assay [3], in assay [4] and in assay [5] was greater than 100 µM in each case. Also, the TGI in assay [6], in assay [7], in [8], in assay [9], in assay [10] and in assay [11] was greater than 100 µM throughout.
Regarding `CC1=NN2CCC(=O)N=C2S1`, the TGI in assay [1], in [12], in [2], in assay [3], in assay [4] and in assay [5] was greater than 100 µM each time. Further, the TGI in assay [6], in [7], in assay [8], in [9], in assay [10] and in assay [11] was greater than 100 µM each time.
Consider `CN1C/C(=C\c2cccs2)C(=O)/C(=C/c2cccs2)C1`, for which the TGI in [1] was greater than 100 µM; in assay [12], greater than 100 µM; in assay [2] it was 32.3 µM; in assay [3], greater than 100 µM; in assay [4], 83.3 µM; in assay [5] it was 55.4 µM. Moreover, the TGI in assay [6] was 66.8 µM; in assay [7], greater than 100 µM; in assay [8] it was 34.1 µM; in assay [9] it was 72.1 µM; in assay [10], greater than 100 µM; in assay [11], greater than 100 µM.
On to `CCOC(=O)C1CCCN1C(=O)c1ccccc1Cl` (configuration not stated), for which the TGI was greater than 100 µM in assay [1]; greater than 100 µM in assay [12]; greater than 100 µM in assay [2]; 88.3 µM in assay [3]; greater than 100 µM in assay [4]; greater than 100 µM in assay [6]. Further, the TGI in assay [7], in assay [8], in assay [9], in assay [10] and in [11] was greater than 100 µM throughout.
With `CCOC(=O)CCC(NC(=O)c1ccc(Nc2nc3ccccc3nc2C(=O)OCC)s1)C(=O)OCC` (configuration not stated), the TGI in assay [1], in assay [12], in [2], in [3], in assay [4] and in assay [5] was greater than 100 µM throughout. Moreover, the TGI in assay [6], in assay [7], in [8], in [9] and in assay [10] was greater than 100 µM each time.
In the case of `COc1ccc(C2NC(N)=C(C#N)C3=C2C(C)CCC3)cc1OC` (configuration not stated), the TGI in assay [1], in assay [12], in [2], in assay [3], in assay [4] and in assay [6] was greater than 100 µM each time. The TGI is greater than 100 µM in assay [7], greater than 100 µM in assay [8], greater than 100 µM in assay [9] and 75.7 µM in [11].
On to `COc1cc(-c2nc(SC)nc3c2CCc2ccccc2-3)cc(OC)c1OC`, for which the TGI in assay [1] is greater than 100 µM; in assay [12], greater than 100 µM; in [2], 68.8 µM; in [3] it was greater than 100 µM; in assay [4], greater than 100 µM; in assay [5], greater than 100 µM. The TGI in assay [6], in [8], in assay [9], in assay [10] and in [11] was greater than 100 µM in each case.
With `O=C(CN1CCN(c2ccccn2)CC1)N1CCCn2c1nc1ccccc1c2=O`, the TGI in assay [12], in assay [2], in assay [3], in assay [4], in assay [5] and in assay [6] was greater than 100 µM throughout. Besides, the TGI in assay [7], in assay [8], in [9], in [10] and in [11] was greater than 100 µM throughout.
As for `Cc1cc(OCc2nnc3n2N=C(c2cc(F)c(Cl)cc2Cl)/C(=C/c2ccc(-c4ccc(Cl)cc4)o2)S3)ccc1Cl`, the TGI is greater than 50 µM in [1]; greater than 50 µM in [12]; 30.2 µM in assay [2]; greater than 50 µM in assay [3]; greater than 50 µM in [4]; greater than 50 µM in [6]. Also, the TGI in assay [7], in assay [8], in [9], in assay [10] and in [11] was greater than 50 µM in each case.
Regarding `Cc1cc(O)c(C(C)C)cc1C(=S)Nc1ccc(Cl)cc1`, the TGI in assay [1] was 28.6 µM; in assay [12], 33.9 µM; in assay [2] it was 33 µM; in assay [3], 22.3 µM; in assay [4], 23 µM; in [5] it was 20.2 µM. Also, the TGI stood at 28.3 µM in [6], 23.1 µM in assay [8], 30.7 µM in [9] and 32.9 µM in assay [11].
